Each structure is given as a SMILES string.

The target in this assay is T1, human full-length MKNK1 (Homo sapiens, UniProt Q9BUB5, T385D).
T1 construct: GST (N); purchased Carna Biosciences 02-145; host or cells: insect cells (baculovirus expression system)
T1 sequence (Q9BUB5 1-424 isoform Q9BUB5-2 T344D): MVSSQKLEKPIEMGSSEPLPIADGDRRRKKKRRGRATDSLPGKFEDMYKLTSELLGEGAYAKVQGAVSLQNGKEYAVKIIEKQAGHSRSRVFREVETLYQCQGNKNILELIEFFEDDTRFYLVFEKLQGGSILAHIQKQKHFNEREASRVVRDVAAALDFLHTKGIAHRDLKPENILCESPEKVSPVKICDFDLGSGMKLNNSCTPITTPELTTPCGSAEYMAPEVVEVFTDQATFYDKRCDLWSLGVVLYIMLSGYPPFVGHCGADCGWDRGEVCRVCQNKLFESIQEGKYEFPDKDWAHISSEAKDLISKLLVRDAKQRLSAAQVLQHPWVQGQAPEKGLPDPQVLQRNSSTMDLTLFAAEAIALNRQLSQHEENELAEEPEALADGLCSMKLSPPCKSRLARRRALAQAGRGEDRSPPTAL
The experiment in a line: MKNK1 kinase high ATP assay (TR-FRET). Conditions: high ATP (2 mM final), 15 min preincubation with enzyme, GST-MKNK1 (T344D). It counts as biochemical. Put shortly:
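GST-tagged human full-length MKNK1 (T344D), insect-cell expressed, preincubated 15 min at 22 °C with compound, then reacted 30 min at 22 °C with 2 mM ATP and 0.06 μM biotinylated peptide (final) in HEPES pH 7.5. Phospho-peptide detected by TR-FRET (665/620 nm ratio) after EDTA stop; normalised to no-inhibitor and no-enzyme controls.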
Broadly, the IC50 is the concentration at which inhibition is half-maximal. Read a low IC50 as inhibition by little substance. `COc1cc2[nH]ncc2cc1Nc1ncnc2sc3c(c12)CCN(C(=O)N1[C@H](C)COC[C@H]1C)C3` [Example 93, [(3R,5R)-3,5-Dimethylmorpholin-4-yl]{4-[(6-methoxy-1H-indazol-5-yl)amino]-5,8-dihydropyrido[4′,3′:4,5]thieno[2,3-d]pyrimidin-7(6H)-yl}methanone]: the midpoint of inhibition, the IC50, lay at 4 nM. The same measure for `COc1cc2[nH]ncc2cc1Nc1ncnc2sc3c(c12)CCN(C(=O)N1C[C@H](C)O[C@@H](C)C1)C3` [Example 94, [(2S,6S)-2,6-Dimethylmorpholin-4-yl]{4-[(6-methoxy-1H-indazol-5-yl)amino]-5,8-dihydropyrido[4′,3′:4,5]thieno[2,3-d]pyrimidin-7(6H)-yl}methanone]: 3 nM.

For the compound `COc1cc2[nH]ncc2cc1Nc1ncnc2sc3c(c12)CCN(C(=O)N1C[C@@H](C)O[C@H](C)C1)C3` [Example 95, [(2R,6R)-2,6-Dimethylmorpholin-4-yl]{4-[(6-methoxy-1H-indazol-5-yl)amino]-5,8-dihydropyrido[4′,3′:4,5]thieno[2,3-d]pyrimidin-7(6H)-yl}methanone], the half-inhibitory concentration (IC50) was determined as 3 nM. For `COc1cc2[nH]ncc2cc1Nc1ncnc2sc3c(c12)CCN(C(=O)N1CCOC[C@H]1C)C3` [Example 96, {4-[(6-Methoxy-1H-indazol-5-yl)amino]-5,8-dihydropyrido[4′,3′:4,5]thieno[2,3-d]pyrimidin-7(6H)-yl}[(3R)-3-methylmorpholin-4-yl]methanone] the value was 3 nM; for `COc1cc2[nH]ncc2cc1Nc1ncnc2sc3c(c12)CCN(C(=O)N1CCOC[C@@H]1C)C3` [Example 97, {4-[(6-Methoxy-1H-indazol-5-yl)amino]-5,8-dihydropyrido[4′,3′:4,5]thieno[2,3-d]pyrimidin-7(6H)-yl}[(3S)-3-methylmorpholin-4-yl]methanone], 3 nM; for `COc1cc2[nH]ncc2cc1Nc1ncnc2sc3c(c12)CCN(Cc1ccn(C)n1)C3` [Example 98, N-(6-Methoxy-1H-indazol-5-yl)-7-[(1-methyl-1H-pyrazol-3-yl)methyl]-5,6,7,8-tetrahydropyrido[4′,3′:4,5]thieno[2,3-d]pyrimidin-4-amine], 11 nM.

`COc1cc2[nH]ncc2cc1Nc1ncnc2sc3c(c12)CCN(C(=O)N(C)CCC(F)(F)F)C3` [Example 99, 4-[(6-Methoxy-1H-indazol-5-yl)amino]-N-methyl-N-(3,3,3-trifluoropropyl)-5,8-dihydropyrido[4′,3′:4,5]thieno[2,3-d]pyrimidine-7(6H)-carboxamide] showed a concentration for half-maximal inhibition (IC50) of 2 nM. For `COc1cc2[nH]ncc2cc1Nc1ncnc2sc3c(c12)CCN(C(=O)NCCC(F)(F)F)C3` [Example 100, 4-[(6-Methoxy-1H-indazol-5-yl)amino]-N-(3,3,3-trifluoropropyl)-5,8-dihydropyrido[4′,3′:4,5]thieno[2,3-d]pyrimidine-7(6H)-carboxamide] the value was 1 nM; for `COc1cc2[nH]ncc2cc1Nc1ncnc2sc3c(c12)CCN(C(=O)N1[C@@H](C)COC[C@@H]1C)C3` [Example 101, [(3S,5S)-3,5-Dimethylmorpholin-4-yl]{4-[(6-methoxy-1H-indazol-5-yl)amino]-5,8-dihydropyrido[4′,3′:4,5]thieno[2,3-d]pyrimidin-7(6H)-yl}methanone], 9 nM; for `COc1cc2[nH]ncc2cc1Nc1ncnc2sc3c(c12)CCN(C(=O)c1ccno1)C3` [Example 102, {4-[(6-Methoxy-1H-indazol-5-yl)amino]-5,8-dihydropyrido[4′,3′:4,5]thieno[2,3-d]pyrimidin-7(6H)-yl}(1,2-oxazol-5-yl)methanone], 5 nM.

For `COc1cc2[nH]ncc2cc1Nc1ncnc2sc3c(c12)CCN(C(=O)c1ccn(C)n1)C3` [Example 103, {4-[(6-Methoxy-1H-indazol-5-yl)amino]-5,8-dihydropyrido[4′,3′:4,5]thieno[2,3-d]pyrimidin-7(6H)-yl}(1-methyl-1H-pyrazol-3-yl)methanone], the IC50 was found to be 11 nM.

These data come from US20170107229A1, “SUBSTITUTED TETRAHYDROPYRIDOTHIENOPYRIMIDINES” (BAYER PHARMA AKTIENGESELLSCHAFT, priority 2014, published 2017).
